Experimental findings from article PMC9503112, “Synthesis, Molecular Docking, In Vitro and In Vivo Studies of Novel Dimorpholinoquinazoline-Based Potential Inhibitors of PI3K/Akt/mTOR Pathway” (International Journal of Molecular Sciences, 2022) are described below.

Data set [1] deals with PI3K/Akt/mTOR signaling pathway in MCF7 cells. As to the kind of experiment: Immunoblotting of PI3K/Akt/mTOR phosphorylation. It counts as cell-based, human. On the procedure:
(§1) MCF7 cells were seeded onto 100 mm dishes (Corning) and cultivated for 24 h. Compound 7c was added at different concentrations while the reference compound wortmannin (Selleckchem, Houston, TX, USA) was used at 500 nM. The cells were harvested after 72 h of growth with the compounds. To prepare cell extracts, MCF7 cells were twice washed in phosphate buffer and incubated for 10 min on ice in the modified lysis buffer containing 50 mM Tris-HCl, pH 7.5, 0.5% Igepal CA-630, 150 mM NaCl, 1 mM EDTA, 1 mM DTT, 1 mM PMSF, 0.1 mM sodium orthovanadate and aprotinin, leupeptin, pepstatin (1 µg/mL each). The protein content was determined by the Bradford method. Cell lysates were separated in 10% SDS-PAGE under reducing conditions, transferred to a nitrocellulose membrane (GE HealthCare, Chicago, IL, USA), and processed according to a standard protocol. To prevent nonspecific absorption, the membranes were treated with 5% nonfat milk solution in TBS buffer (20 mM Tris, 500 mM NaCl, pH 7.5) with 0.1% Tween-20 and then incubated with primary antibodies (Cell Signaling Technology, Danvers, MA, USA) overnight at 4 °C. […] Signals were detected using the ECL reagent using the ImageQuant LAS4000 system (GE HealthCare, Chicago, IL, USA).
(§2) The signals of phospho-proteins to total ones were calculated using the ImageJ program from inverted images of the bands.
Background: A western blot detects proteins with antibodies after separation by electrophoresis.

Another data set can be described thus: Solubility. Format: physicochemical.
In a further data set the test system is keratinocytes HaCaT. As to the kind of experiment: Antiproliferative activity, MTT assay. It counts as cell-based. The note with it: Homo sapiens, 72 h, standard deviations within 50%. The protocol:
(§3) Human breast cancer MCF7, MDA-MB-231, SkBr-3 (purchased from the ATCC collection), human keratinocytes HaCaT, murine fibroblasts L929 and macrophages J774 cells (Collection of Shemyakin-Ovchinnikov Institute of Bioorganic Chemistry RAS) were cultured in standard DMEM or RPMI-1640 medium (ThermoScientific, Waltham, MA, USA) supplemented with 10% fetal bovine serum (FBS, Cytiva, Marlborough, MA, USA) at 37 °C, 5 % CO2 and 80–85% humidity (NuAir CO2 incubator). The cell growth was evaluated by MTT (3-[4,5-dimethylthiazol-2-yl]-2,5-diphenyltetrazolium bromide) test. Cells were seeded at a density of 5 × 10^3 cells per well in 96-well flat-bottomed plates (TPP). The compounds were dissolved in DMSO (AppliChem) to 10 mM before the experiments, and then the resulting solutions were diluted by the medium to the required concentrations. Solutions of the tested compounds with different concentrations in 100 μL of the medium were added and the cells were grown for 72 h. MTT (10 μL/well, 5 mg/mL) was added for the final 3 h. The formazan purple crystals were dissolved in DMSO (100 μL per well). The absorbance of solutions was measured at 540 nm with a MultiScan reader (ThermoFisher). Results were analyzed by Excel package (Microsoft). The inhibition of proliferation (inhibitory index) was calculated as [1–(ODexperiment/ODcontrol)], where OD was MTT optical density. IC50 (Table 1) was determined as the concentration giving 50% of inhibition in the comparison with it […].
Background: Tetrazolium dyes change colour on reduction, which living cells bring about.

The test system of the next data set is MCF7. The data set can be described thus: Antiproliferative activity, MTT assay. Format: cell-based. The note with it: Homo sapiens, 72 h, standard deviations within 50%. The protocol:
as §3

In a further data set the test system is PARP1 in MCF7 cells. The data set can be described thus: Immunoblotting of PARP1 cleavage. Format: cell-based, human. On the procedure:
as §1, §2

In another data set the test system is macrophages J774. The data set can be described thus: Antiproliferative activity, MTT assay. It counts as cell-based, murine. The conditions noted are these: Mus musculus, 72 h, standard deviations within 50%. The protocol:
as §3

The subject of a further data set is fibroblasts L929. The data set can be described thus: Antiproliferative activity, MTT assay. It counts as cell-based, murine. The conditions noted are these: Mus musculus, 72 h, standard deviations within 50%. The protocol: as §3

“And” between values parts separate entries of the source, which are not always exact repeats. Identical values can stand only once.

For the compound `O=C(NCCc1cccnc1)Nc1ccc(-c2ccc3c(N4CCOCC4)nc(N4CCOCC4)nc3c2)cc1` [Compound 7c, 1-(4-(2,4-Dimorpholinoquinazolin-7-yl)phenyl)-3-(2-(pyridin-3-yl)ethyl)urea], in data set [1], the “Concentration inhibiting phosphorylation of Akt, mTOR, S6K (PI3K/Akt/mTOR proteins)” value is 125 to 250 nM and 250 to 500 nM. In the data set “Solubility”, the Solubility result is “soluble only in DMSO”. Also, the IC50 in the data set with keratinocytes HaCaT turned out to be 6 µM; with MCF7, 0.2 µM; in the data set on macrophages J774, 0.4 µM; in the data set on fibroblasts L929, 3 µM. For the same compound, in the data set with PARP1 in MCF7 cells, the “Concentration triggering PARP-1 cleavage” value is 62 to 125 nM.

As usually defined, the IC50 is the concentration that inhibits the measured activity by half. High values mean weaker potency, low ones greater potency.
